Key:
[1] = Electrochemical generation of H+ or OH- ions at indium tin oxide electrode surfaces (cyclic voltammetry); assay type: physicochemical
From the text: FIG. 7B: Cyclic voltammetric study of the oxidation of Ascorbic acid test in ITO electrodes. Current increase around 0.25V indicates the start of oxidation at ITO electrodes.
Electrode material used: The electrode material was indium tin oxide. This is a semiconducting electrode surface with very large potential window in an aqueous solution.
Oxidation of ascorbic acid at the electrode surfaces produced H^+ ions and changed the electrode surface pH to a more acidic state:
The electrode potential at which it oxidizes was less than 0.5V for Indium tin oxide material vs Ag/AgCl reference electrode (as shown in FIG. 7). This potential was less than the voltages needed for the oxygen evolution reaction in aqueous solution. The ascorbic acid also acted as a sacrificial species to prevent electrochemical degradation of the surface chemistry.
Reduction of benzoquinone (C6H4O2) into Hydroquinone (C6H6O2) can produce OH^− ions at −0.1V: […]

[2] = target: Green Fluorescent Protein (GFP) (Aequorea victoria, UniProt P42212); test: Effect of benzoquinone substitution on protein (GFP) stability, by fluorescence intensity; assay type: biochemical; details: incubation 30 min in phosphate buffered saline, concentration of benzoquinones 0.5 mM
From the text: Para-benzoquinones and ortho-benzoquinones (compounds 2, 4, 6, and 9 in FIG. 31) are susceptible to nucleophilic attack at the double bond of the ring (positions 2, 3, 5 and 6 in structure 2 of FIG. 31, positions 3, 4, 5 and 6 in structure 4 of FIG. 31, and positions 2 and 3 in structure 6 of FIG. 31). Introducing substituents at some or all of those positions can mitigate the problem of nucleophilic attack. For example, 1,4-benzoquinone (structure 2 in FIG. 31, where R1, R2, R3 and R4 are H) undergoes Michael addition reaction with amino groups of proteins (Loomis et al., Phytochemistry, 5, 423, (1966) and U.S. Pat. No. 6,753,312 B2). […] Fluorescence intensity of Green Fluorescent Protein (GFP) was measured after incubation with three different benzoquinones in phosphate buffered saline for 30 min (concentration of benzoquinones was 0.5 mM). The difference in fluorescence intensity indicates the varied effect that the different substitutions in benzoquinones have on the stability of GFP. Fluorescence intensity of GFP is indicative of its structural integrity. Losses in fluorescence intensity usually indicate loss of its tertiary structure (protein denaturation) (Yin D. X., Zhu L., Schimke R. T. Anal. Biochem. 1996, 235:195-201).

Row | SMILES | electrode potential at which it oxidizes ([1]; Indium tin oxide material vs Ag/AgCl reference electrode) | start of oxidation (current increase) ([1]; cyclic voltammetric study at ITO electrodes) | potential of reduction into Hydroquinone producing OH- ions ([1]; electro-reduction at indium tin oxide electrode) [V] | loss in GFP fluorescence intensity after incubation [2] [%]
1 | O=C1O[C@H]([C@@H](O)CO)C(O)=C1O [ascorbic acid] | less than 0.5 V | around 0.25 V | – | –
2 | O=C1C=CC(=O)C=C1 [unsubstituted benzoquinone, 1,4-benzoquinone] | – | – | −0.1 | 25

— patent US20180318834A1, “INTEGRATION OF ELECTROCHECMICAL PH MODULATION WITH LAB ON A CHIP TECHNOLOGIES” (Robert Bosch GmbH, priority 2015, published 2018)
